The target in one series is T1, Nurr1 LBD Arg563Ala (Homo sapiens, UniProt P43354, R563A).
T1 construct: Mutants of LAP2 Nurr1 were prepared by GenScript starting from LAP2 Nurr1 vector; made in house
T1 sequence (P43354 with tags, fused parts or gaps R563A): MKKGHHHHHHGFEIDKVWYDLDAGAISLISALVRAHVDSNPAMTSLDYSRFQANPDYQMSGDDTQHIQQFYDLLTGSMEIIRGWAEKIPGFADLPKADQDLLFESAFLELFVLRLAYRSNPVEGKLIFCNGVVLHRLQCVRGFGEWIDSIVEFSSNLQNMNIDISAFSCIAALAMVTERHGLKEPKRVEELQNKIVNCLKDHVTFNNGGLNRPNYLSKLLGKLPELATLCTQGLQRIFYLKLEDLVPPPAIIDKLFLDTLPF
Put plainly: MST binding to Arg563Ala mutant Nurr1 LBD. The conditions noted are these: for Amplitude: Table 1, MST amplitude, R563A; for Response Amplitude: Table 2, MST, Arg563Ala. The method, then: (§1) The plasmid used for the expression of LAP2-tagged Nurr1 LBDs (LAP2 Nurr1) was prepared by GenScript (Piscataway, N.J.) as the product of gene synthesis and subcloning into pET-21a(+) Vector (GenScript) using the Ndel and Xhol sites within the MCS. Mutants of LAP2 Nurr1 were prepared by GenScript starting from LAP2 Nurr1 vector.
(§2) Concentration-dependent association of the indoles with the Nurr1 LBD was carried out using microscale thermophoresis. Stock solutions (10 mM in DMSO) of each indole were serially diluted (200 μM indole, 0.5× dilutions down to 0.0061 μM) in MST buffer (25 mM HEPES, pH 7.4, 150 mM NaCl, and 0.1% Pluronic F127) containing 2% DMSO. The dilutions were carried out with 4% DMSO in the MST buffer for a total of 16 concentrations. Equivalent volumes and concentrations of the fluorescently labeled Nurr1 LBD in MST buffer were added to each ligand dilution in the series to reach a final concentration of 75 nM labeled protein. After incubating for 20 minutes, the samples were loaded into Monolith NT.115 Capillaries (Nanotemper).
(§3) Data were collected using the Monolith NT.115 System (Nanotemper), with settings for all samples at 40% excitation power and 40% MST power. The initial fluorescence was recorded for 3 sec and the thermophoresis fluorescence response was recorded for 20 sec. The data was inspected with Palmist software^5, and data points affected by initial fluorescence quenching or photobleaching were eliminated. The fluorescent response for each sample was normalized to the initial fluorescence using Palmist software to provide the values of thermophoresis (Fn). The resulting data was used to generate a plot of the change in thermophoresis (Fn-Fn0, where Fn=thermophoresis and Fn0=thermophoresis response in unbound range) versus concentration of the ligand. GraphPad Prism v. 8.3.0 software was used to fit the resulting data to a mass action equation for a specific binding with Hill slope, solving for KD: Fn-Fn0═Fmax·[L]^n/(KD^n+[L]^n), where Fmax=maximum amplitude of thermophoresis, [L]=concentration of the ligand at a specific point, KD=dissociation constant, nH=Hill Coefficient.

The target in series [1] is T2, Nurr1 LBD Arg563Ala + His516Ala (Homo sapiens, UniProt P43354, H516A/R563A).
T2 construct: Mutants of LAP2 Nurr1 were prepared by GenScript starting from LAP2 Nurr1 vector; made in house
T2 sequence (P43354 with tags, fused parts or gaps H516A/R563A): T1 sequence (P43354 with tags, fused parts or gaps R563A) with H180A
Put plainly: MST binding to Arg563Ala + His516Ala double mutant Nurr1 LBD. The conditions noted are these: for Amplitude: Table 1, MST amplitude, H516A/R563A; for Response Amplitude: Table 2, MST, Arg563Ala + His516Ala. The method, then:
as §1, §2, §3

The subject of another series is MN9D cells. Put plainly: CytoTox-Glo cytotoxicity assay. The conditions noted are these: 24 h treatment, 10 μM unless stated. The class given is cell-based. The method, then: Cytotoxicity assays were carried out using the CytoTox-Glo Cytotoxicity Assay Kit (Promega) according to the manufacturer's instructions. Briefly, MN9D cells were resuspended in DMEM/F-12 with 5% FBS at 2·10^5 cells/ml and added to an equal volume of two-fold concentrated compound in the same media containing 0.2% DMSO (prepared by diluting DMSO stock of the compound in warm DMEM/F-12 with 5% FBS; for DMSO control equivalent volume of DMSO was used instead of the compound stock), and immediately re-plated onto poly-D-lysine pre-treated 96-well white-walled flat clear bottom plate (Corning cat #3903) at a density of 1·10^4 cells/well (100 μL/well), 3 replicas per compound. As a background (BG) control, for each of the compound (or DMSO) equivalent volume of compound mixed with DMEM/F-12+5% FBS was plated. After 24 h treatment at 37° C., in 5% C02 incubator, 50 μL of CytoTox-Glo™ Cytotoxicity Assay Reagent was added to each well, mixed briefly by orbital shaking and incubated for 15 min at ambient temperature. Luminescence signal corresponding to dead cells was measured using Biotek Synergy H4 hybrid microplate reader. After the measurement, 50 μL of Lysis Reagent was added to each well, mixed, incubated for 15 min at ambient temperature, and total luminescence was measured. The percentage of viable cells was then calculated as follows: Percent Viable Cells (%)=100% (Total cell luminescence (test compound)—Dead cell luminescence (test compound))/(Total cell luminescence (DMSO)—Dead cell luminescence (DMSO)).

Where [2] appears, read: Table 1, H516A/R563A relative to WT.

Positions count from the first letter of the chain named. pKd: −log10 of the molar value. “Also recorded” adds a separate entry of the source. Where two headings read alike, the source gives them in different places. Bounds are passed on as bounds.

As usually defined, the pKd is the negative decadic logarithm of the Kd, by convention in mol/L.

As to `Brc1ccc2[nH]ccc2c1` [5-bromoindole], the “Binding to Arg563Ala mutant Nurr1 LBD (in words)” value on Nurr1 LBD Arg563Ala (MST) is listed as “completely eliminated”. The values for the Amplitude (at Nurr1 LBD Arg563Ala; in series [1]) were not above 10 and “- (≤10)”, respectively. Further, the “Amplitude (% change)” value on Nurr1 LBD Arg563Ala (Table 1, R563A relative to WT) is recorded as not below −86%; in series [1] (setting [2]), not below −86%. In addition, the “Response Amplitude” value (at Nurr1 LBD Arg563Ala; in series [1]) was ≤10 (****) in each case. Moreover, the “Binding to Arg563Ala + His516Ala mutant Nurr1 LBD (in words)” value in series [1] (MST) is on record as “completely eliminated”. Moreover, the “Cytotoxicity / cell viability” value in the series on MN9D cells was “somewhat toxic to cells under certain conditions”.

Take `Clc1ccc2[nH]ccc2c1` [5-chloroindole]: the Amplitude at Nurr1 LBD Arg563Ala is reported as 23 + 2; in series [1], 26 + 2. The pKd at Nurr1 LBD Arg563Ala (Table 1, Nurr1 variant R563A, read-out: KD) is 4.89; on Nurr1 LBD Arg563Ala (Table 2, Arg563Ala, read-out: Affinity (KD)) it was 5.08; in series [1] (Table 1, Nurr1 variant H516A/R563A, read-out: KD), 5.10; in series [1] (Table 2, Arg563Ala + His516Ala, read-out: Affinity (KD)) it was 5.14. The “Amplitude (% change)” value at Nurr1 LBD Arg563Ala (Table 1, R563A relative to WT) is recorded as −66%; in series [1] (setting [2]) it was −62%. Further, the “KD (% change)” value was −48% on Nurr1 LBD Arg563Ala (Table 1, R563A relative to WT) and −68% in series [1] (setting [2]). The “Response Amplitude” value on Nurr1 LBD Arg563Ala is recorded as 19 + 2 (****); in series [1], 23 + 1 (****). In addition, the “Cytotoxicity / cell viability” value with MN9D cells is “no significant effect on cell viability; also recorded: not cytotoxic; also recorded: non-cytotoxic”.

These data come from patent publication US20230255934A1, “NURR1 RECEPTOR MODULATORS AND USES THEREOF” (The Regents of the University of California, priority 2020, published 2023).
